Data from article PMC9953660, “Using ΔK280 TauRD Folding Reporter Cells to Screen TRKB Agonists as Alzheimer’s Disease Treatment Strategy” (Biomolecules, 2023).
Like-named read-outs stand apart in the source and are kept apart here.

Columns and labels:
MTT cell viability assay = format: cell-based; details: human
Description: Human neuroblastoma SH-SY5Y cells with inducible ΔK280 TauRD-DsRed expression were maintained in DMEM/F-12 supplemented with fetal bovine serum (FBS, 10%) (Thermo Scientific, Waltham, MA, USA), penicillin/streptomycin (100 U/mL), selection antibiotics hygromycin (100 μg/mL) and blasticidin (5 μg/mL) (InvivoGen, San Diego, CA, USA), and 1.5 g/l sodium bicarbonate. Cells were cultured at 37 °C in a 5% CO2 atmosphere. The cell viability of ZN and VB compounds (concentration range: 0.1–100 μM) was evaluated by a 3-(4,5-dimethylthiazol-2-yl)-2,5-diphenyltetrazolium bromide (MTT; Sigma-Aldrich) colorimetric assay. The absorbance at 570 nm was recorded by a Multiskan™ GO Microplate Spectrophotometer (Thermo Scientific).

[1] = Cell number / cell survival in induced ΔK280 TauRD-DsRed SH-SY5Y cells (high-content); format: cell-based, human; details: human; induced SH-SY5Y cells expressing ΔK280 TauRD-DsRed for 6 days, 2–10 μM tested; read-out: IC50 cytotoxicity based on cell number
Description: (§1) ΔK280 TauRD-DsRed SH-SY5Y cells were plated in the presence of 10 μM retinoid acid (RA; Sigma-Aldrich) to promote neuronal differentiation. The next day, cells were added with congo red or ZN/VB compounds (2–10 μM) for 8 h pretreatment, followed by inducing ΔK280 TauRD-DsRed expression with doxycycline (2 μg/mL). On day 8, cell nuclei were stained with Hoechst 33342 (0.1 μg/mL; Thermo Scientific), and cell images acquired using ImageXpress Micro Confocal High-Content Imaging System (Molecular Devices, San Jose, CA, USA) with DAPI (4′,6-diamidino-2-phenylindole, for nuclei) and TRITC (tetramethylrhodamine, for DsRed) fluorescence filter sets. To detect ROS changes, 10 μM compound-treated cells were stained with Hoechst 33342 and 2′,7′-dichlorodihydrofluorescein diacetate (H2DCFDA, 10 μM) fluorescein (Invitrogen, Carlsbad, CA, USA), and cell images captured using DAPI and FITC (fluorescein isothiocyanate, for DCF) filters. For assessing differential neurite outgrowth, 10 μM compound-treated cells were fixed (paraformaldehyde, 4%), permeabilized (Triton X-100, 0.3%), and stained with class III β-tubulin (TUBB3, 1:1000) primary antibody (#802001, BioLegend, San Diego, CA, USA), followed by donkey anti-rabbit Alexa Fluor® 555 secondary antibody (1:1000; #A-31572, Invitrogen) and DAPI (0.1 μg/mL; Sigma-Aldrich) stains. The nuclei and neurite images were acquired with DAPI and TRITC fluorescence filters, respectively. All analyses of images were performed using MetaXpress software (Molecular Device).

[2] = tested on: ROS in ΔK280 TauRD-DsRed SH-SY5Y cells; assay: High-content assessment of cellular ROS (H2DCFDA); format: cell-based, human; details: 10 μM; uninduced = 100%, induced untreated 123%; range over compounds
Description: as §1, with “For assessing differential neurite outgrowth, 10 μM compound-treated cells were fixed (paraformaldehyde, 4%), permeabilized (Triton X-100, 0.3%), and stained with class III β-tubulin (TUBB3, 1:1000) primary antibody (#802001, BioLegend, San Diego, CA, USA), followed by donkey anti-rabbit Alexa Fluor® 555 secondary antibody (1:1000; #A-31572, Invitrogen) and DAPI (0.1 μg/mL; Sigma-Aldrich) stains.” left out, “All analyses of images were performed using MetaXpress software (Molecular Device).” left out

[3] = target: T1, E. coli-expressed ΔK280 TauRD protein (Homo sapiens, UniProt P10636, DEL597-597); assay: Thioflavin T fluorescence ΔK280 TauRD aggregation assay; format: biochemical; details: TauRD protein 20 μM, 48 h at 37 °C; read-out: EC50 inhibiting ΔK280 TauRD aggregation
T1 construct: TauRD (Q^244-E^372 of Tau, NP_005901) aggregation; N-terminal Met (N); made in house; host or cells: E. coli
T1 sequence (P10636 with tags, fused parts or gaps isoform P10636-8 DEL280-280): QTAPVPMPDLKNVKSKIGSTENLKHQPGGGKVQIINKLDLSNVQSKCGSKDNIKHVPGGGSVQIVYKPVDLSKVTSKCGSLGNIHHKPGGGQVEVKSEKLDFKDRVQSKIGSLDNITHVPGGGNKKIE
Description: The anti-aggregation activity of congo red (positive control) and ZN/VB compounds (5–20 μM) was assessed using E. coli-expressed ΔK280 TauRD protein [33] and thioflavin T (Sigma-Aldrich) fluorescence assay. The trend of ΔK280 TauRD amyloid aggregate formation depicted with enhanced and red-shifted fluorescence was recorded by a FLx800 microplate fluorescence reader (BioTek Instruments), where the procedure was previously reported in detail.

[4] = DPPH free-radical scavenging assay; format: physicochemical; details: 10–160 μM, compared to kaempferol
Description: Free-radical scavenging activity of kaempferol (positive control) and ZN/VB compounds (10–160 μM) was measured using a 1,1-diphenyl-2-picrylhydrazyl (DPPH; Sigma-Aldrich) photometric assay as stated. The absorbance at 517 nm was assessed by a Multiskan™ GO Microplate Spectrophotometer (Thermo Scientific). An oxygen radical absorbance capacity (ORAC) assay of kaempferol and ZN/VB compounds (4–100 μM) was conducted according to the manufacturer’s instructions (OxiSelect™; Cell Biolabs, San Diego, CA, USA). The decrease of fluorescence intensity was monitored by a FLx800 microplate fluorescence reader (BioTek Instruments, Winooski, VT, USA). The ORAC activity was quantified as a trolox-equivalent antioxidant capacity.

[5] = target: T2, TRKB extracellular domain (TRKB-ECD) (Homo sapiens, UniProt Q16620); assay: Tryptophan fluorescence quenching assay; details: Pichia pastoris-expressed TRKB-ECD, 0–1000 nM, excitation 295 nm, emission 330 nm, room temperature; read-out: KD (TRKB-ECD binding affinity)
T2 construct: TRKB-ECD (marked in red, C^32-E^429, XP_016870240); His (C); made in house; host or cells: Pichia pastoris
T2 sequence (Q16620 32-429): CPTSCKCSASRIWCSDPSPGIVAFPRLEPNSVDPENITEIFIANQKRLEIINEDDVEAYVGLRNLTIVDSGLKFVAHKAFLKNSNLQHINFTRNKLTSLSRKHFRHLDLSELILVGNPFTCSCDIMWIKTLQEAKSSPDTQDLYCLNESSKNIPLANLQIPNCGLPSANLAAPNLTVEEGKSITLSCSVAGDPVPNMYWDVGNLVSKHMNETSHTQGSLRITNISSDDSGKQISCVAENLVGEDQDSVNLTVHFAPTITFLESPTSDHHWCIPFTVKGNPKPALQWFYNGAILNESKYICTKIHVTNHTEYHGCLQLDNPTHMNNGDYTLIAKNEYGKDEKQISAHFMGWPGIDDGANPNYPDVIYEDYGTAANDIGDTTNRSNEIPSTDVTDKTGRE
Description: The interaction between the N-terminal extracellular domain of TRKB (TRKB-ECD) and 7,8-DHF (as positive control; [35]), ZN-015, VB-030 or VB-037 was evaluated with tryptophan fluorescence titration. TRKB-ECD-His protein was expressed in the Pichia expression system (Invitrogen) and purified as stated. Intrinsic tryptophan fluorescence spectra with titration of a different concentration of compounds (0–1000 nM) were recorded by fluorescence spectrophotometer F-7000 (Hitachi, Tokyo, Japan), with excitation wavelength 295 nm and emission wavelength in the range of 300–400 nm. The calculation of dissociation constant (KD) between the 7,8-DHF or ZN/VB compound and TRKB was described in a previous report.

[6] = tested on: SH-SY5Y cells expressing ΔK280 TauRD-DsRed; assay: Cell number / cell survival in induced ΔK280 TauRD-DsRed SH-SY5Y cells (high-content); format: cell-based, human; details: induced ΔK280 TauRD-DsRed SH-SY5Y, 2–10 μM
Description: as §1

ΔK280 TauRD-DsRed = target: T3, ΔK280 TauRD-DsRed (Homo sapiens, UniProt P10636, DEL597-597); assay: High-content DsRed fluorescence assay of ΔK280 TauRD-DsRed folding reporter cells; format: cell-based; details: 10 μM; untreated cells = 100%; 8 h pretreatment, 6 day Dox induction
T3 construct: TauRD (Q^244-E^372 of Tau, NP_005901) aggregation; expressed in transfected cells; host or cells: SH-SY5Y (Tet-On, doxycycline-inducible)
T3 sequence (P10636 with tags, fused parts or gaps isoform P10636-8 DEL280-280): as the sequence (P10636 with tags, fused parts or gaps isoform P10636-8 DEL280-280) above
Description: as §1, with “For assessing differential neurite outgrowth, 10 μM compound-treated cells were fixed (paraformaldehyde, 4%), permeabilized (Triton X-100, 0.3%), and stained with class III β-tubulin (TUBB3, 1:1000) primary antibody (#802001, BioLegend, San Diego, CA, USA), followed by donkey anti-rabbit Alexa Fluor® 555 secondary antibody (1:1000; #A-31572, Invitrogen) and DAPI (0.1 μg/mL; Sigma-Aldrich) stains.” left out, “All analyses of images were performed using MetaXpress software (Molecular Device).” left out

[7] = target: T2, TRKB extracellular domain (TRKB-ECD); set-up: method as in PMID 25143381; details: read-out: KD (TRKB-ECD binding affinity), reported value; cited from earlier work

Compound	IC50 at 24 h (MTT cell viability assay)	IC50 at 6 days [1]	EC50 [3]	Kd [5]	further results
COc1cccc2oc(C(=O)c3ccccc3)cc12 [ZN-013, (4-methoxybenzofuran-2-yl)(phenyl)methanone]	> 100 µM	27 µM			
O=[N+]([O-])c1cccc2nc(/C=C/c3cc4ccccc4nc3N3CCOCC3)ccc12 [VB-037, (E)-4-(3-(2-(5-nitroquinolin-2-yl)vinyl)quinolin-2-yl)morpholine]	> 100 µM	23 µM	13.1 µM	0.0043 ± 0.0052 µM	ROS level (DCF fluorescence) [2]: no effect on reducing ROS; DPPH free radical scavenging activity [4]: very weak DPPH free radical scavenging activity
O=C(Nc1cccc(S(=O)(=O)NC2=NCCCCC2)c1)c1cc(-c2ccncc2)nc2ccccc12 [VB-041, 2-(pyridin-4-yl)-N-(3-(N-(3,4,5,6-tetrahydro-2H-azepin-7-yl)sulfamoyl)phenyl)quinoline-4-carboxamide]	> 100 µM	> 10 µM			
Cc1ccc(-c2cc(-c3ccncc3)nc3ccccc23)cc1 [VB-030, 2-(pyridin-4-yl)-4-(p-tolyl)quinoline]	> 100 µM	> 10 µM	20.3 µM	0.011 ± 0.0024 µM	
Cc1ccc2[nH]c(=O)c(C(=O)/C=C/c3nc4ccccc4[nH]3)c(-c3ccccc3)c2c1 [VB-031, (E)-3-(3-(1H-benzo[d]imidazol-2-yl)acryloyl)-6-methyl-4-phenylquinolin-2(1H)-one]	6 µM	< 2 µM			percentage of cell survival [6]: less than 75%
O=C(O)COc1cc(O)c2c(=O)cc(-c3ccccc3)oc2c1 [ZN-006, 2-((5-hydroxy-4-oxo-2-phenyl-4H-chromen-7-yl)oxy)acetic acid]	> 100 µM	> 10 µM			
Nc1c(/N=N/c2ccc(-c3ccc(/N=N/c4cc(S(=O)(=O)O)c5ccccc5c4N)cc3)cc2)cc(S(=O)(=O)O)c2ccccc12 [congo red, Congo red, reference compound]		> 10 µM	13.9 µM		DsRed fluorescence (ΔK280 TauRD-DsRed): 114%
CCOC(=O)c1cc2c(O)cccc2oc1=O [ZN-014, ethyl 5-hydroxy-2-oxo-2H-chromene-3-carboxylate]		> 10 µM			IC50 at 24 h (MTT cell viability assay; uninduced ΔK280 TauRD-DsRed SH-SY5Y, 0.1–100 μM, 24 h, read-out: IC50 cytotoxicity (MTT)): > 100 µM
O=c1cc(-c2ccccc2)oc2c(O)c(O)ccc12 [7,8-DHF, 7,8-dihydroxy flavone, reference compound]				0.0134 ± 0.0084 µM	Kd [7]: 0.0121 ± 0.0016 µM
